Source: patent US20250376432A1, “PROCESS FOR PREPARING MODULATORS OF EUKARYOTIC INITIATION FACTOR 2B” (Denali Therapeutics Inc., priority 2022, published 2025)

Key:
[1] = Dynamic Vapor Sorption (DVS) analysis / hygroscopicity of salt forms; type: physicochemical; settings: for Hygroscopicity by DVS analysis / Hygroscopicity: DVS at 25° C.; for Hygroscopicity: Table 4
Procedure: DVS analysis was carried out using a Surface Measurement System DVS Intrinsic analyzer (SMS, UK). The instrument balance was calibrated with standard weights. Approximately 15-20 mg of sample was loaded into a pan for analysis. The sample was analyzed at 25° C. in 10% relative humidity (RH) steps from 50% to 95% RH (adsorption cycle), from 95% to 0% RH (desorption cycle), and from 0% to 50% RH (adsorption cycle). The movement from one step to the next occurred either after satisfying the equilibrium criterion of 0.002% weight change (dm/dt) or, if the equilibrium criterion was not met, after six hours. […]

[2] = Solid form stability (physical by XRPD, chemical by GC purity) under stress storage; type: physicochemical; settings: for 25° C./60% RH 2-weeks stability, Purity (%) / 40° C./75% RH 2-weeks stability, Purity (%) / 60° C. 2 weeks stability, Purity (%): GC purity; for 60° C. 2 weeks stability, XRPD: about 20 mg in glass weighing bottles
Procedure: Standard XRPD patterns were collected using a Bruker D8 Advance diffractometer (Bruker, GER). The X-ray source is a copper (Cu) tube that was operated at 40 kV and 40 mA. Powder samples were prepared on zero-background silicon (Si) holders using manual light pressure to keep the sample surfaces flat. Each sample was analyzed from 3 to 45° 2θ with an effective step size of 0.02° 2θ and 0.08 s exposure time.
Shimadzu GC-2104 (Shimadzu, Japan) was utilized for chemical purity characterization.
Several salts were further investigated for hygroscopicity, purity, and solid form stability. To determine solid form stability, glass weighing bottles containing about 20 mg samples were kept under (1) 60° C., (2) 25° C./60% RH, and (3) 40° C./75% RH conditions, respectively. After 1 week and 2 weeks, respectively, XRPD and GC analyses were conducted to investigate the physical and chemical stability of the selected forms under corresponding conditions.

SMILES | Hygroscopicity by DVS analysis [1] | Form conversion after DVS test ([1]; after DVS test) | Hygroscopicity [1] | 25° C./60% RH 2-weeks stability, XRPD [2] | 25° C./60% RH 2-weeks stability, Purity (%) [2] [%] | 40° C./75% RH 2-weeks stability, XRPD [2] | 40° C./75% RH 2-weeks stability, Purity (%) [2] [%] | 60° C. 2 weeks stability, XRPD [2] | 60° C. 2 weeks stability, Purity (%) [2] [%] | DVS weight gain at 80% RH ([1]; 25° C.) | DVS weight gain at 95% RH ([1]; 25° C.) | Deliquescence with high humidity [1] | DVS weight gain at 0% RH ([1]; 0% RH, 25° C.)
C1CCC(NC2CCCCC2)CC1.O=C(O)[C@H]1C[C@@H](OC(F)(F)F)C1 [VIa-1a DCHA salt Form A] | non-hygroscopic | no form conversion was detected | – | – | – | – | – | – | – | – | – | – | –
C1CCC(NC2CCCCC2)CC1.O=C(O)[C@H]1C[C@@H](OC(F)(F)F)C1 [VIa-1a, DCHA salt Form A] | – | – | non- | No change | 99.7 | No change | 99.3 | Sublimed | – | – | – | – | –
N=C(N)NCCC[C@H](N)C(=O)O.O=C(O)[C@H]1C[C@@H](OC(F)(F)F)C1 [VIa-1a, L-Arginine salt Form A] | – | – | hygroscopic | No change | 98.8 | Deliquesced | – | additional peak | 99.2 | – | – | – | –
N=C(N)NCCC[C@H](N)C(=O)O.O=C(O)[C@H]1C[C@@H](OC(F)(F)F)C1 [VIa-1a, L-arginine salt Form A] | high hygroscopicity | – | – | – | – | – | – | – | – | about 28% | about 74% | deliquesced with high humidity | –
CC(C)(C)N.O=C(O)[C@H]1C[C@@H](OC(F)(F)F)C1 [VIa-1a, TBA salt Form A] | – | – | non- | – | – | – | – | Sublimed^& | – | – | – | – | –
NC(CO)(CO)CO.O=C(O)[C@H]1C[C@@H](OC(F)(F)F)C1 [VIa-1a, TMA salt Form A] | non-hygroscopic | – | non- | No change | 99.4 | No change | 99.3 | No change | 99.3 | about 0.1% | about 47% | may deliquesce with high humidity (>90% RH) | about 7%
